Converted amounts (≈) assume the structure as drawn. Read-outs that look alike come from different tables or passages of the source.
Experiments:
rats = test: Penile erection test using rats; type: in vivo, rat; conditions: oral single dose 10 mg/kg in 0.5% methyl cellulose, observed for 2 hours
[1] = Solubility in buffer solution in pH=2&5; type: physicochemical; conditions: for solubility at 30 min: 20 °C, thermodynamic from solid
Experimental: According to that defined in the Korea Pharmacopoeia, citrate-HCl buffer (pH 2) and citrate-NaOH buffer (pH 5) solutions were added to the powdered compounds of formula 1, respectively. After subsequent severe shaking for 30 sec every 5 min in […] for 30 min, the level of compounds in the filtrate was measured by high performance liquid chromatography.

[2] = Acute oral toxicity test in rats; conditions: SD, rat, in vivo
[3] = biological target: T1, Phosphodiesterase-3 enzyme (PDE 3) (Oryctolagus cuniculus, UniProt G1ST54); test: Test for phosphodiesterase-3 (PDE 3) activity; type: biochemical; conditions: PDE 3 fraction from platelets of a rabbit
T1 construct: The supernatant was separated by DEAE-cellulose column chromatography (Whatman DE52 bead); from tissue; host or cells: rabbit platelets
T1 sequence (G1ST54 1-1128): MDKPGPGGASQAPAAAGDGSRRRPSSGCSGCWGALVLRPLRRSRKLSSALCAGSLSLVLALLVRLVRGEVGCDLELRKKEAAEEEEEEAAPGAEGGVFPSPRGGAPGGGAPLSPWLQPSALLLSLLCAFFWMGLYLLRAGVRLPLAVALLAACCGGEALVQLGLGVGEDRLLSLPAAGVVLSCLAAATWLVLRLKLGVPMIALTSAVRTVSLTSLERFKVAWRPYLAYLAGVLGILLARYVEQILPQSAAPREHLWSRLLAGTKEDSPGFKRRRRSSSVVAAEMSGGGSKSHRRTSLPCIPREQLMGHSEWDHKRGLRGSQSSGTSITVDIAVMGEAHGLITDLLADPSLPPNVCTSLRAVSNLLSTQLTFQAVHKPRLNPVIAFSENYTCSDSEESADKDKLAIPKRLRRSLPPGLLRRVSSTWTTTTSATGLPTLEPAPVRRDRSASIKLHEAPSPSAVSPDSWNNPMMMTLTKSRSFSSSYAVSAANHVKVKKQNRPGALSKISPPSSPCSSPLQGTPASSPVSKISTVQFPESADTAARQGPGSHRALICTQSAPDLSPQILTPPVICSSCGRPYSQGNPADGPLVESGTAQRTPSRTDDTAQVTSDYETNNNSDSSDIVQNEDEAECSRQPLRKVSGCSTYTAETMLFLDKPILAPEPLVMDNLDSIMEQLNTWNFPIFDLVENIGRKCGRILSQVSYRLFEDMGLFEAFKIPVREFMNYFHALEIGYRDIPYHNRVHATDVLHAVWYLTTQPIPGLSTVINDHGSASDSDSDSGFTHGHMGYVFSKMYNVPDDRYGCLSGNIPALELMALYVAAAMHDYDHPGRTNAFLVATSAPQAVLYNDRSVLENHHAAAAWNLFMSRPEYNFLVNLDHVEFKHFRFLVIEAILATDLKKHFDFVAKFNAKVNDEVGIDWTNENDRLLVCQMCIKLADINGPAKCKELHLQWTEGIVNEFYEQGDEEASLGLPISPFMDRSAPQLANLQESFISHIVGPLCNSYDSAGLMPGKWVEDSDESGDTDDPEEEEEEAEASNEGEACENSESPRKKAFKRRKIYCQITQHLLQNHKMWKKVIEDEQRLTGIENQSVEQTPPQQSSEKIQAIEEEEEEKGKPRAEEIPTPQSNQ
In short: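 PDE3 taken from rabbit platelets as a DEAE-cellulose fraction, incubated with inhibitor and [3H]-cAMP or [3H]-cGMP (500 nM) for about 1 h at 30° C, pH 7.4. Product converted by snake venom or 5′-nucleotidase, unreacted substrate removed on anion-exchange resin, supernatant radioactivity counted by β-counter.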

[4] = Metabolism in rat liver (9,000xg supernatant fraction with NADPH); type: in vitro ADME; conditions: 10 ug/ml, 37° C., 1 hr, rat liver 9,000xg supernatant with NADPH generating solution
Experimental: In order to evaluate the extent of metabolism of the compounds of formula 1, the metabolism in rat liver was studied as below similar to the reported method (C. L. Litterist, E. G. Mimnaugh, R. I. Reagan and T. G. Gram., Drug. Metabol. Disposit., 1975, 3, 259-265). In short, the disappearance of compounds after incubation in 9, 000×g supernatant fraction of rat liver homogenate in the presence of NADPH (reduced nicotinamide adenine dinucleotide phosphate) was evaluated.
First, Sprague-Dawley rat (Korea Experiment Animals, SPF) liver was isolated after perfusion through portal vein with 0.1 M phosphate buffer of pH 7.0 using tissue homogenizer at 4° C. After centrifugation at 9,000×g for 20 min, the supernatants were collected.
The compound stock solution was spiked (10 ug/ml) into each of the eppendorf tubes containing 1 ml of the mixed solution composing 1 volume of supernatants and 2 volumes of generating solution. The generating solution contains 1 mM NADP, 10 mM glucose-6-phosphate, 50 mM nicotinamide and 5 MM MgCl2 in 0.1 M phosphate buffer of pH 7.0. After vortex-mixing, each test tube was incubated in a water bath kept at 37° C. After 1 hr, was added acetonitrile to the reaction mixture and centrifuged. 100 ul of aliquot of the supernatant was sampled from each test tube for measuring the remnants by high performance liquid chromatography.

[5] = biological target: T2, Phosphodiesterase-5 enzyme (PDE 5) (Homo sapiens, UniProt O76074); test: Test for phosphodiesterase-5 (PDE 5) activity; type: biochemical; conditions: PDE 5 fraction from human corpus cavernosal tissues
T2 construct: separated by HPLC (Mono Q anion exchange column) with concentration gradient of 0-500 mM NaCl to elute PDE isozymes; from tissue; host or cells: human corpus cavernosal tissue

[6] = tested on: men with erectile dysfunction of organic cause; conditions: oral administration; cited from earlier work
[7] = biological target: Phosphodiesterase-6 enzyme (PDE 6) (Aquarana catesbeiana, UniProt Z9LGG0MB32+Z9OH76POJ0); test: Test for phosphodiesterase-6 (PDE 6) activity; type: biochemical, bullfrog; conditions: PDE 6 fraction from retina of bullfrogs, trypsin-activated
[8] = citrate-HCl buffer, pH 2, aqueous buffer, citrate-HCl buffer (pH 2), read-out: solubility pH 2
[9] = citrate-NaOH buffer, pH 5, aqueous buffer, citrate-NaOH buffer (pH 5), read-out: solubility pH 5
[10] = 1 g/kg, rats, oral single dose, read-out: lethal dose (LD50) of oral administration

**Q.** Which “PEI (penile erection index)” value (rats) does the source give for `CCCOc1ccc(S(=O)(=O)NCC2CCN(C)C2)cc1-c1nc2c(CCC)nn(C)c2c(=O)[nH]1` (stereo not drawn) [Example 60, 5-[2-propyloxy-5-(1-methyl-3-pyrrolidinylmethylamidosulfonyl)phenyl]-1-methyl-3-propyl-1,6-dihydro-7H-pyrazolo(4,3-d)pyrimidin-7-one] here?
**A.** 300.0 ± 81.7

**Q.** And the “genital grooming (number of genital groomings)” value (from here on “genital grooming”) (rats)?
**A.** 2.8 ± 0.5

**Q.** What about the “solubility pH 2” value ([1]; citrate-HCl buffer (pH 2)) of the same compound?
**A.** 4497 ug/ml

**Q.** And the solubility at 30 min [1, 8]?
**A.** 3720 to 5360 µg/mL (≈ 7.4 to 10.7 mM)

**Q.** And the “solubility pH 5” value ([1]; citrate-NaOH buffer (pH 5))?
**A.** 4923 ug/ml

**Q.** What about the solubility at 30 min [1, 9] of the same compound?
**A.** 4920 to 14800 µg/mL (≈ 9.79 to 29.4 mM)

**Q.** And the LD50 [2, 10]?
**A.** > 1000 mg/kg

**Q.** And the IC50 [3]?
**A.** > 199 µM

**Q.** What about the “remnants (%)” value [4] of the same compound?
**A.** 78.2%

**Q.** And the IC50 [5]?
**A.** 0.0347 µM

**Q.** With `CCOc1ccc(S(=O)(=O)NCC2CCN(C)C2)cc1-c1nc2c(CC(C)C)nn(C)c2c(=O)[nH]1` (stereo not drawn) [Example 62, 5-[2-ethoxy-5-(1-methyl-3-pyrrolidinylmethylamidosulfonyl)phenyl]-1-methyl-3-isobutyl-1,6-dihydro-7H-pyrazolo(4,3-d)pyrimidin-7-one] as the compound, how does the “PEI (penile erection index)” value (rats) read?
**A.** 200.0 ± 100.0

**Q.** And the “genital grooming” value (rats)?
**A.** 3.0 ± 1.0

**Q.** What about the “solubility pH 2” value ([1]; citrate-HCl buffer (pH 2)) of the same compound?
**A.** 4383 ug/ml

**Q.** What about the solubility at 30 min [1, 8] of the same compound?
**A.** 3720 to 5360 µg/mL (≈ 7.4 to 10.7 mM)

**Q.** What about the “solubility pH 5” value ([1]; citrate-NaOH buffer (pH 5)) of the same compound?
**A.** 3596 ug/ml

**Q.** And the solubility at 30 min [1, 9]?
**A.** 4920 to 14800 µg/mL (≈ 9.79 to 29.4 mM)

**Q.** What about the LD50 [2, 10] of the same compound?
**A.** > 1000 mg/kg

**Q.** What about the IC50 [3] of the same compound?
**A.** 164 µM

**Q.** And the “remnants (%)” value [4]?
**A.** 94.5%

**Q.** What about the IC50 [5] of the same compound?
**A.** 0.0417 µM

**Q.** With `CCCOc1ccc(S(=O)(=O)NCCC2CCCN2C)cc1-c1nc2c(CCC)nn(C)c2c(=O)[nH]1` (stereo not drawn) [Example 68, 5-[2-propyloxy-5-(1-methyl-2-pyrrolidinylethylamidosulfonyl)phenyl]-1-methyl-3-propyl-1,6-dihydro-7H-pyrazolo(4,3-d)pyrimidin-7-one] as the compound, how does the “PEI (penile erection index)” value (rats) read?
**A.** 233.3 ± 152.8

**Q.** And the “genital grooming” value (rats)?
**A.** 3.0 ± 2.0

**Q.** What about the “solubility pH 2” value ([1]; citrate-HCl buffer (pH 2)) of the same compound?
**A.** 5356 ug/ml

**Q.** What about the solubility at 30 min [1, 8] of the same compound?
**A.** 3720 to 5360 µg/mL (≈ 7.2 to 10.4 mM)

**Q.** What about the LD50 ([2]; po) of the same compound?
**A.** > 1000 mg/kg

**Q.** What about the IC50 [3] of the same compound?
**A.** 70.1 µM

**Q.** What about the “remnants (%)” value [4] of the same compound?
**A.** 93.0%

**Q.** What about the IC50 [5] of the same compound?
**A.** 0.00885 µM

**Q.** Which “PEI (penile erection index)” value (rats) does the source give for `CCOc1ccc(S(=O)(=O)NCCC2CCCN2C)cc1-c1nc2c(CC(C)C)nn(C)c2c(=O)[nH]1` (stereo not drawn) [Example 70, 5-[2-ethoxy-5-(1-methyl-2-pyrrolidinylethylamidosulfonyl)phenyl]-1-methyl-3-isobutyl-1,6-dihydro-7H-pyrazolo(4,3-d)pyrimidin-7-one] here?
**A.** 175.0 ± 50.0

**Q.** What about the “genital grooming” value (rats) of the same compound?
**A.** 1.8 ± 0.5

**Q.** And the solubility at 30 min [1, 8]?
**A.** 795 µg/mL (≈ 1.54 mM)

**Q.** What about the solubility at 30 min [1, 9] of the same compound?
**A.** 708 µg/mL (≈ 1.37 mM)

**Q.** What about the LD50 [2, 10] of the same compound?
**A.** > 1000 mg/kg

**Q.** And the IC50 [3]?
**A.** 61.5 µM

**Q.** What about the “remnants (%)” value [4] of the same compound?
**A.** 94.1%

**Q.** And the IC50 [5]?
**A.** 0.0203 µM

**Q.** With `CCCc1nn(C)c2c(=O)[nH]c(-c3cc(S(=O)(=O)N4CCN(C)CC4)ccc3OCC)nc12` [sildenafil, reference compound] as the compound, how does the “genital grooming” value (rats) read?
**A.** 3.1 ± 1.2

**Q.** What about the solubility at 30 min [1, 8] of the same compound?
**A.** 1580 µg/mL (≈ 3.34 mM)

**Q.** What about the solubility at 30 min [1, 9] of the same compound?
**A.** 480 µg/mL (≈ 1.01 mM)

**Q.** And the response rate [6]?
**A.** around 80%

**Q.** And the IC50 [7]?
**A.** 0.0767 ± 0.00153 µg/mL (≈ 0.000162 mM)

**Q.** What about the IC50 [3] of the same compound?
**A.** 71.4 µM
